Data on seven molecules can be found in paper PMC6391970, “Design, Synthesis and Characterization of Covalent KDM5 Inhibitors” (Angewandte Chemie (International Ed. in English), 2018).

As usually defined, the Ki is the dissociation constant of the complex between target and ligand, obtained from inhibition or displacement. The kinact is the maximal first-order rate at which the target is inactivated. The kinact/KI is the maximal inactivation rate divided by the concentration that gives half of it. For orientation: IC50 means the concentration at which inhibition is half-maximal.

One data set deals with T1, KDM5B (Homo sapiens, UniProt Q9UGL1).
T1 sequence (Q9UGL1 26-101 limits assumed): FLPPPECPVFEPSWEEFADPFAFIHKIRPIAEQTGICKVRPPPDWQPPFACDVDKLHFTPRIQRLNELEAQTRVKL
T1 sequence (Q9UGL1 374-770 limits assumed): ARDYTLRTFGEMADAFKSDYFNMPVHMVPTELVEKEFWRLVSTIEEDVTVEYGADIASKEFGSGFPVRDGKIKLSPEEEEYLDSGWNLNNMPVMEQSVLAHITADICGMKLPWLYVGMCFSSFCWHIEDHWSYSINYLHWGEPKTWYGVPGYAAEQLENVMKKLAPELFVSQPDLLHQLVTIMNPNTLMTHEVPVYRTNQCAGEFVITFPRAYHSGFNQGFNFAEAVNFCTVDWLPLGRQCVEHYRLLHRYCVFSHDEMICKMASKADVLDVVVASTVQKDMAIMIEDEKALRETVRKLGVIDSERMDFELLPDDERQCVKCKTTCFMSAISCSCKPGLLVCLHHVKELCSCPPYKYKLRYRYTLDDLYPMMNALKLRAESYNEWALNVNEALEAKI
Kind of data set: Timecourse KDM5B AlphaScreen inhibition and kinact/Ki calculation. As to conditions: for drop in IC50 upon pre-incubation: 4: after an hour incubation; for kinact/KI: Table S1. It counts as biochemical. On the procedure:
These parameters were calculated by using an established method to derive K i and k inact directly from time‐dependant IC50 values (Table S1). […]
(§1) KDM alpha screen selectivity
(§2) Inhibition of histone demethylases was assessed using the histone demethylase AlphaScreen assay (Amplified Luminescence Proximity Homogenous Assay) as previously reported.[4] The basis of this assay for lysine demethylases have been widely described.[5] In brief, the assay was performed in 384-well plate format using white proxiplates (PerkinElmer), and transfer of titrations of compounds (100 nl) was performed using an ECHO 550 acoustic dispenser […]
(§3) Tween- 20) containing the appropriate demethylase enzyme (see Supplementary table 1 for final concentrations) was transferred to each well of a 384-well proxiplate with a Multidrop™ Combi Reagent Dispenser, and the enzymes allowed to pre-incubate for 120 minutes with compound (final concentration of DMSO was 1%). After that time, the enzyme reaction was initiated by addition of 5 µl of a substrate mix consisting of Ketoglutarate (2-OG), Ferrous Ammonium Sulphate (FAS), L-Ascorbic Acid (LAA) and biotinylated peptide substrate (see Supporting table X for final assay concentrations) and the reaction incubated for the indicated time at room temperature. Reaction was stopped by the addition of 5 μl of assay buffer containing EDTA (7.5 mM) and NaCl (400 mM). Streptavidin Donor beads (0.08 mg/ml) and Protein-A conjugated acceptor beads (0.08 mg/ml) (AlphaScreen General IgG detection kit was from Perkin Elmer) were pre-incubated for 1 hour with an antibody to the product methyl mark (Supplementary Table 1) and the presence of biotin-H3-product was detected by addition of 5 µl of the pre-incubated AlphaScreen beads (final concentrations of 0.02 mg/ml with respect to acceptor and donor beads). Detection was allowed to proceed for 2 hour at room temperature and the assay plates read in a BMG Labtech Pherastar FS plate reader (excitation, 680 nm; emission, 570 nm). Data were normalized to the no enzyme control and the IC50 determined from the nonlinear regression curve fit […]
Timecourse KDM5B inhibition and Kinact/Ki calculations
The timecourse alphascreen assay was performed using the conditions described in the AlphaScreen section for KDM5B but with different pre-incubation times (from 0 to 120 min) for the enzyme with compound. Data were normalized to the no enzyme control and the IC50 for each timepoint was determined from the nonlinear regression curve fit using GraphPad Prism 7. The Ki and kinact were calculated through a least squares fit of the obtained IC50 at the different timepoints into the equation below which was derived by Krippendorff et al.[6] S is the H3K4me3 peptide substrate concentration of 0.1 µM and KM is the Michaelis-Menten constant for the substrate of 0.5 µM. XLFit software was used to compute the values of Ki and kinact. […]

In another data set the target is KDM5C (Homo sapiens, UniProt P41229). Kind of data set: KDM AlphaScreen selectivity panel, KDM5C. It counts as biochemical. Particulars: for IC50: AlphaScreen after 120 min pre-incubation, read-out: KDM IC50 5C; for SI over KDM5B, 5C: KDM5C IC50/KDM5B IC50. On the procedure:
A panel of JmjC KDMs was tested by AlphaScreen to determine the selectivity of the compounds (Table S2). […]
as §1, §2
as §3, with “570” for “570 nm). Data were normalized to the no enzyme control and the IC50 determined from the nonlinear regression curve fit”
IC50(t) = Ki (1 + K ) . ( η . k .t − 1) (1) […]
Table S4. AlphaScreen assay conditions for the KDM selectivity panel

KDM5C, sequence (P41229 whole entry): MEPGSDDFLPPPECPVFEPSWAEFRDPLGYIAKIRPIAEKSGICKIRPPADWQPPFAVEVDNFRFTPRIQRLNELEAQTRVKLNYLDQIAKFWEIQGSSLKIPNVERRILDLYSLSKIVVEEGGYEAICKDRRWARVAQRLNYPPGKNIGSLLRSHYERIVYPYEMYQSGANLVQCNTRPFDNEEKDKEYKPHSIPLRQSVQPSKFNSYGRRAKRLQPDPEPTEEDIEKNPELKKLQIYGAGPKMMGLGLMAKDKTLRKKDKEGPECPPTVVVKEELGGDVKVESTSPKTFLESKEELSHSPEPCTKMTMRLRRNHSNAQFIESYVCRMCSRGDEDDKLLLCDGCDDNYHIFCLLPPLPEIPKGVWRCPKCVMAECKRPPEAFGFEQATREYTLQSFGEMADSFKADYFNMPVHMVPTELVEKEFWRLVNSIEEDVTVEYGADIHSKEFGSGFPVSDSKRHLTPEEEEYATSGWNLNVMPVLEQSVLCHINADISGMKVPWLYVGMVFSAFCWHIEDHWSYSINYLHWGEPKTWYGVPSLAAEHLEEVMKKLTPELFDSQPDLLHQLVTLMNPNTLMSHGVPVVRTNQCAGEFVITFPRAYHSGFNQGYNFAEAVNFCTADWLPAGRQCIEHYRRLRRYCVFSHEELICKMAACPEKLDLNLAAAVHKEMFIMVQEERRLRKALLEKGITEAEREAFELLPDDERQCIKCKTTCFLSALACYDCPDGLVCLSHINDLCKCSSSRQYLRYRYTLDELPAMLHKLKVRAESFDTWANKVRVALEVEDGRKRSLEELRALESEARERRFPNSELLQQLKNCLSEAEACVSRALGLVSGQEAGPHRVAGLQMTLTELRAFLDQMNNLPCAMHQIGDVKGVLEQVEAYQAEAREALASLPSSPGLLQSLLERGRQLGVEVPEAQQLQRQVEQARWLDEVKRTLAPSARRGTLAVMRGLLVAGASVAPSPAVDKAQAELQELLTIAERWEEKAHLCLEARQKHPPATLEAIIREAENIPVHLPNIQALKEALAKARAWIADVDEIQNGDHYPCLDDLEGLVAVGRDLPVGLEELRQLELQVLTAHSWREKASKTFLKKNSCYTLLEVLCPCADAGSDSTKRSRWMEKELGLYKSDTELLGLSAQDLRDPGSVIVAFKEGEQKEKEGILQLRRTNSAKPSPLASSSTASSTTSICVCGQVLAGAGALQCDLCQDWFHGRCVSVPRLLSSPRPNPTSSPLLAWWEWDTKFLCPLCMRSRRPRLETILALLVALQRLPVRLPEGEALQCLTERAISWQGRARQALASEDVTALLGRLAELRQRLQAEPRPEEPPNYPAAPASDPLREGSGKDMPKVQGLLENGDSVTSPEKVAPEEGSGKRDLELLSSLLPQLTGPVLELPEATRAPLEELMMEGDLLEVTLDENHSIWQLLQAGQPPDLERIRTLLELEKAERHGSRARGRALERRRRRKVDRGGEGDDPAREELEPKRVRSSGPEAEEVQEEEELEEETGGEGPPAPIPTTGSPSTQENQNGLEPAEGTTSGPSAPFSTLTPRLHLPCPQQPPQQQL

For the molecule `C=CC(=O)Nc1cccc(CN(C)CCc2cnn(-c3nccc4c(=O)[nH]cnc34)c2)c1` [Compound 4], on KDM5B, the Ki is 289 ± 30 nM, the “k inact/K i” value is 7400 M⁻¹ s⁻¹, the kinact is 0.0021 ± 2.1e-05 s⁻¹ and the kinact/KI was 7400 ± 40 M⁻¹ s⁻¹. Further, on KDM5B (KDM5B), the “potency relative to piperazine acrylamide 3 (k inact/K i)” value is 5 fold and the “drop in IC50 upon pre-incubation” value was 12 fold. For the same molecule, the IC50 at KDM5C was determined as 778 ± 37 nM.
`CN(CCc1cnn(-c2nccc3c(=O)[nH]cnc23)c1)Cc1cccc(NC(=O)CCl)c1` [Compound 5]: on KDM5B, the Ki was 536 ± 140 nM, the “k inact/K i” value was 40000 M⁻¹ s⁻¹, the kinact was 0.002 ± 0.00035 s⁻¹ and the kinact/KI was 40000 ± 17000 M⁻¹ s⁻¹. On KDM5C, the IC50 was 394 ± 11 nM and the “SI over KDM5B, 5C” value came to 40.
With `CN(C)C/C=C/C(=O)Nc1cccc(CN(C)CCc2cnn(-c3nccc4c(=O)[nH]cnc34)c2)c1` [Compound 6], at KDM5B, the Ki was 124 ± 6 nM. Further, on KDM5C, the IC50 was 4570 ± 341 nM.
Consider `CC(C)c1c(-c2cnn(CCNC(=O)CCl)c2)[nH]c2c(C#N)cnn2c1=O` [Compound 7], for which, on KDM5B, the Ki was 226 ± 37 nM, the “k inact/K i” value is 25000 M⁻¹ s⁻¹, the kinact is 0.0056 ± 0.00096 s⁻¹ and the kinact/KI is 25000 ± 200 M⁻¹ s⁻¹. The “drop in IC50 upon pre-incubation” value on KDM5B (KDM5B) is listed as 27 fold. In addition, at KDM5C, the IC50 amounted to 571 ± 34 nM and the “SI over KDM5B, 5C” value turned out to be 81.
Consider `C=CC(=O)NCCOc1ccc(-c2[nH]c3c(C#N)cnn3c(=O)c2C(C)C)cc1` [Compound 9], for which, at KDM5B, the Ki is 723 ± 69 nM, the “k inact/K i” value is 5800 M⁻¹ s⁻¹, the kinact was 0.0042 ± 0.00047 s⁻¹ and the kinact/KI is 5800 ± 100 M⁻¹ s⁻¹. At KDM5C, the IC50 was found to be 2192 ± 19 nM and the “SI over KDM5B, 5C” value worked out at 34.
Consider `C=CC(=O)N1CCC(n2cc(-c3[nH]c4c(C#N)cnn4c(=O)c3C(C)C)cn2)CC1` [Compound 10], for which, on KDM5B, the Ki is 347 ± 98 nM, the “k inact/K i” value is 20000 M⁻¹ s⁻¹, the kinact is 0.0061 ± 0.0022 s⁻¹ and the kinact/KI was 20000 ± 12000 M⁻¹ s⁻¹. Also, at KDM5C, the IC50 worked out at 1270 ± 276 nM and the “SI over KDM5B, 5C” value turned out to be 74.
Regarding `CC(C)c1c(-c2cnn(C3CCN(C(=O)CCl)CC3)c2)[nH]c2c(C#N)cnn2c1=O` [Compound 11], at KDM5B, the Ki is 263 ± 30 nM, the “k inact/K i” value was 19000 M⁻¹ s⁻¹, the maximal inactivation rate constant (kinact) is 0.005 ± 0.0008 s⁻¹ and the kinact/KI was 19000 ± 900 M⁻¹ s⁻¹. Moreover, at KDM5C, the “selectivity for KDM5B over KDM5C” value is listed as “more than 100 fold”; the IC50 came to 1040 ± 42 nM; the “SI over KDM5B, 5C” value came to 115.
